According to publication PMC11984392, “EphA2-targeted alpha-particle theranostics for enhancing PDAC treatment” (Theranostics, 2025):
Like-named read-outs stand apart in the source and are kept apart here. *1 amine or outer side, *2 acyl side, *3 side chain or, on linkers, in order; H or OH if unused. Where a SMILES comes first, the peptide text is derived from it. Bridges are numbered along the chain shown (N, C = ends). [ ]: non-standard residue; d: D form. The star is where a group is joined. TATA = O=C(CC[*:1])N1CN(C(=O)CC[*:2])CN(C(=O)CC[*:3])C1; NOTA = O=C(O)CN1CCN(CC(=O)O)CCN(CC(=O)*)CC1; Hyp = O=C(O)[C@@H]1C[C@@H](O)CN1; hArg = N=C(N)NCCCC[C@H](N)C(=O)O; PEG2 = NCCOCCOCCC(=O)O; Sar = CNCC(=O)O

How the values were obtained:
[1] = PET-MR imaging of Panc1 orthotopic tumor model; type: in vivo, mice; details: both sexes, NSG, mouse, iv, total radioactivity, PET/MR 60 min p.i., ROI (n = 4)
Protocol: Animal studies were performed under Johns Hopkins University Animal Care and Use Committee (ACUC)-approved protocol (Principal investigator: Sridhar Nimmagadda, Ph.D. and Protocol number M021M175). Male and Female NSG mice (5-6 weeks old) were purchased from JHU immunocompromised core and used to establish xenografts by administering cells subcutaneously (top right flank, unless otherwise noted) to form various tumor models within 3-4 weeks. Following cell numbers were used: Panc1, AsPC1, BxPC3 (1 M), Hs766T and SU8686 (2 M), CFPAC and Panc1005 (5 M). Imaging or biodistribution studies (n = 3-5) were conducted on mice with tumor volumes of 100-200 mm^3. The Panc1 orthotopic tumor model was established by surgically implanting a 3-5 mm^3 section of Panc1 tumor xenograft directly onto the pancreas. The implanted tumors were allowed to grow and were ready for imaging after 10 days of implantation.
Mice having orthotopic panc1 tumors were injected intravenously with [^68Ga]AJ201 and PET images were acquired at 60 min after radiotracer injection for 10 min in 1 bed positions (full body) and whole-body MRI using a Simultaneous 7T Bruker PET-MR. The PET data were acquired, reconstructed, and corrected for radioactive decay using ParaVision 360 V2 by Bruker. The %ID per cc values were obtained after drawing ROI (regain of interest) in tumor and muscle using PMOD software. […]

[2] = PET tumor uptake (SUV) of [68Ga]AJ201; type: in vivo; details: total radioactivity

CC(C)C[C@@H]1NC(=O)[C@@H]2CSCCC(=O)N3CN(CN(C3)C(=O)CCSC[C@H](NC(=O)[C@H](CC(=O)O)NC(=O)[C@H](CCCCNC(=N)N)NC(=O)[C@H](C)NC(=O)CNC(=O)CN(C)C(=O)CN(C)C(=O)CN(C)C(=O)[C@H](CCCNC(=N)N)NC(=O)CNC(=O)CCOCCOCCNC(=O)CN3CCN(CC(=O)O)CCN(CC(=O)O)CC3)C(=O)N3C[C@H](O)C[C@H]3C(=O)N[C@@H](CC(C)C)C(=O)N[C@@H](C(C)C)C(=O)N[C@@H](CC(N)=O)C(=O)N3CCC[C@H]3C(=O)N[C@@H](CC(C)C)C(=O)N2)C(=O)CCSC[C@@H](C(N)=O)NC(=O)[C@H](CCCCNC(=N)N)NC(=O)[C@H](Cc2c[nH]c3ccccc23)NC(=O)[C@@H](CC(=O)O)NC(=O)[C@@H]2CCCN2C(=O)[C@H](Cc2c[nH]cn2)NC1=O [[^68Ga]AJ201, metal not drawn] ({NOTA-PEG2}-GR[Sar][Sar][Sar]GA[hArg]DC[Hyp]LVNPLCLHP[dD]W[hArg]C-NH2; linker 10-17-24 via TATA)
tissue to tissue ratio at 1 h ([1]; tumor and muscle, read-out: Tumor-to-muscle ratio): 14.8 ± 4.46 | tissue to tissue ratio at 1 h ([1]; tumor and pancreas, read-out: Tumor-to-pancreas ratio): 10.3 ± 2.24 | SUV [2]: 1.31 ± 0.11 SUV
